Measured values as given in US4103010A, “(3-Piperazinocarbonylimino-quanidino)-isoxazoles” (Aron S.A.R.L., priority 1975, dated 1978).

Test system: Grollman rats
Test: decrease of the systolic blood pressure in Grollman rats
Type: in vivo, rat
Details: oral, 2 × 3 mg/kg, with respect to original value
Description: (§1) The above results are confirmed by the results of an investigation of the action on the control of blood pressure. On oral administration of a dosage of 2 × 3 mg/kg of compound to Doca rats (Technique according to Green and co-workers, Am. J. Physiol., 1952, 170, p. 94) and to Grollman rats (Technique according to Grollman, Proc. Soc. Exp. Biol. Med., 1944, 57, p. 102), the percent decrease of the systolic blood pressure with respect to its original value is noted.

| SMILES | percent decrease of the systolic blood pressure [%] |
| --- | --- |
| Cc1conc1NC(=N)NC(=N)N1CCN(C)CC1 [Example 29] | 15 |
| CCCN1CCN(C(=N)NC(=N)Nc2cc(C)on2)CC1 [Example 28] | 18 |

Test system: Doca rats
Test: decrease of the systolic blood pressure in Doca rats
Type: in vivo
Details: Rattus norvegicus, oral, 2 × 3 mg/kg, with respect to original value, read-out: percent decrease of the systolic blood pressure
Description: as §1

| SMILES | inhibition in vivo at 3 mg/kg [%] |
| --- | --- |
| Cc1conc1NC(=N)NC(=N)N1CCN(C)CC1 [Example 29] | 15 |
| Cc1noc(NC(=N)NC(=N)N)c1C [Example 25] | 20 |
| Cc1cc(NC(=N)NC(=N)N2CCNCC2)no1 [Example 30] | 10 |
| Cc1cc(N(C)C(=N)NC(=N)N)no1 [Example 7] | 15 |
| Cc1cc(NC(=N)NC(=N)N2CCN(C)CC2)no1 [Example 19] | 20 |
| CCCN1CCN(C(=N)NC(=N)Nc2cc(C)on2)CC1 [Example 28] | 18 |

Test system: not listed separately
Test: acute toxicity investigation in mice
Details: mouse, in vivo, iv, read-out: LD50 (mg/kg) i.v.

| SMILES | LD50 [mg/kg] |
| --- | --- |
| Cc1noc(NC(=N)NC(=N)N)c1C [Example 25] | 20 |
| Cc1noc(C)c1NC(=N)NC(=N)N [Example 22] | > 100 |
| Cc1cc(N(C)C(=N)NC(=N)N)no1 [Example 7] | 70 |
| CCCCNC(=N)NC(=N)Nc1onc(C)c1C [Example 26] | 35 |

Same assay, conditions: mouse, in vivo, po, read-out: LD50 (mg/kg) p.o.

| SMILES | LD50 [mg/kg] |
| --- | --- |
| Cc1conc1NC(=N)NC(=N)N1CCN(C)CC1 [Example 29] | > 1000 |
| Cc1noc(NC(=N)NC(=N)N)c1C [Example 25] | 300 |
| CCCCNC(=N)NC(=N)Nc1c(C)noc1C [Example 23] | > 750 |
| Cc1cc(NC(=N)NC(=N)N2CCNCC2)no1 [Example 30] | > 1000 |
| Cc1noc(C)c1NC(=N)NC(=N)N [Example 22] | > 1500 |
| Cc1cc(N(C)C(=N)NC(=N)N)no1 [Example 7] | > 1000 |
| Cc1noc(C)c1NC(=N)NC(=N)N(C)C [Example 24] | > 750 |
| CCCCNC(=N)NC(=N)Nc1onc(C)c1C [Example 26] | 250 |
| CCCN1CCN(C(=N)NC(=N)Nc2cc(C)on2)CC1 [Example 28] | 400 |

Test system: uptake of ^3 H noradrenalin by the synaptosomes of a rat hypothalamus homogenate
Test: inhibition of the uptake of ^3 H noradrenalin by synaptosomes of a rat hypothalamus homogenate
Type: biochemical
Details: ultimate molar concentration 5 × 10^-4 M; with respect to the control test
Description: The compounds of the formula (I) are capable of modifying the accumulation of noradrenalin and particularly to inhibit the uptake of ^3 H noradrenalin by the synaptosomes of a rat hypothalamus homogenate prepared according to Banerjee, Snyder and Mechoulam (J. Pharmacol. Exp. Ther., 194, 1, 74, 1975). This inhibition of the uptake of ^3 H noradrenaline is a known property of various compounds having an activity on the central nervous system and/or on the sympathetic nervous system, particularly a hypotensive effect (J. Glowinski and J. Axelrod, effects of Drugs on the Disposition of ^3 H norepinephrine in the Rat Brain, Pharmacological Reviews, Vol. 18, No […], Part I, 1966).
They are expressed as percent inhibition of the uptake with respect to the control test.

| SMILES | inhibition % of the uptake of ^3 H noradrenalin [%] |
| --- | --- |
| CCCCNC(=N)NC(=N)Nc1c(C)noc1C [Example 23] | 51 |
| Cc1cc(NC(=N)NC(=N)N2CCNCC2)no1 [Example 30] | 51 |
| Cc1noc(C)c1NC(=N)NC(=N)N(C)C [Example 24] | 28.4 |
| CCCN1CCN(C(=N)NC(=N)Nc2cc(C)on2)CC1 [Example 28] | 60.2 |

Same assay, conditions: ultimate molar concentration 5 × 10^-5 M; with respect to the control test

| SMILES | inhibition % of the uptake of ^3 H noradrenalin [%] |
| --- | --- |
| Cc1conc1NC(=N)NC(=N)N1CCN(C)CC1 [Example 29] | 65.8 |
| Cc1noc(NC(=N)NC(=N)N)c1C [Example 25] | 45.5 |
| Cc1conc1NC(=N)NC(=N)N [Example 8] | 55 |
| CCCCNC(=N)NC(=N)Nc1onc(C)c1C [Example 26] | 39.6 |
| CCCN1CCN(C(=N)NC(=N)Nc2cc(C)on2)CC1 [Example 28] | 20 |

Same assay, conditions: ultimate molar concentration 5 × 10^-6 M; with respect to the control test

| SMILES | inhibition % of the uptake of ^3 H noradrenalin [%] |
| --- | --- |
| Cc1conc1NC(=N)NC(=N)N1CCN(C)CC1 [Example 29] | 30.8 |
| Cc1conc1NC(=N)NC(=N)N [Example 8] | 36 |
